{
  "source": "paper PMC12769565",
  "about": "“Design, synthesis and biological activity of glycoconjugated ADAMTS5 exosite inhibitors: applications in osteoarthritis and ovarian cancer models” (Scientific Reports, 2025)",
  "key": {"[1]": {"system": "HEK293T cells", "experiment": "Cell viability MTS assay", "type": "cell-based, human", "conditions": "100 µM; 72 h; vs DMSO control", "procedure": "(§1) Cell viability was assessed using CellTiter® 96 Aqueous One Solution Cell Proliferation Assay (Promega, G3582) following the manufacturer’s protocol. The assay is based on the reduction of [3-(4,5-dimethylthiazol-2-yl)-5-(3-carboxymethoxyphenyl)-2-(4-sulfophenyl)-2 H-tetrazolium] (MTS) and phenazine ethosulfate into formazan. Compounds 2 and 4b, GM6001 (Merck, 364206) (10–100 µM), or DMSO control were incubated in 48-well Nunc™ plates (Thermo Fisher Scientific,150687) with HEK293T cells, human non-OA chondrocytes, porcine cartilage explants, or human OA cartilage explants for 72 h. At least 3 independent experiments were carried out with 3 technical replicates each. For experiments involving human samples, independent experiments were carried out on 3 different donors. Absorbance at 490 nm was measured on a SpectraMax i3x Multi-Mode Platform (Molecular Devices). Cell viability was normalized to DMSO controls."}, "[2]": {"system": "human non-OA chondrocytes", "experiment": "Cell viability MTS assay", "type": "cell-based", "conditions": "72 h, vs DMSO control", "procedure": "Non-OA human chondrocytes were isolated from knee cartilage tissues obtained from the Stanmore BioBank, Institute of Orthopaedics, Royal National Orthopaedic Hospital, Stanmore, UK, from 3 donors following informed consent and approval by the Royal Veterinary College Ethics and Welfare Committee (Institutional approval URN 2012 0048 H) as before.\nas §1"}, "[3]": {"system": "human OA cartilage explants", "experiment": "Aggrecan fragments released from human OA cartilage (anti-AGEG immunoblot)", "type": "cell-based", "conditions": "48 h, anti-AGEG neoepitope, read-out: inhibition of aggrecan degradation", "procedure": "Samples were separated by SDS-PAGE under reducing conditions (5% β-mercaptoethanol) on BOLT, 4–12%, Bis-Tris Gels (Invitrogen) in MES Running Buffer (NuPAGE). Proteins were transferred onto a nitrocellulose membrane using Trans-Blot Turbo™ Transfer System (BioRad), at 25 V, 2.5 A for 30 min. Membranes were blocked with 3% BSA/PBS for 1 h at room temperature. Aggrecan fragments generated by ADAMTS cleavage at E^392-A^393[8] or E^1953-A^1954[68] were detected using mouse monoclonal anti-ARGSV antibody (BC3, Life Technologies, MA3-16888, 4 µg/ml) or polyclonal anti-AGEG neoepitope antibody (serum, 1:200 dilution)[12],[33], respectively, followed by the appropriate horseradish peroxidase (HRP)-conjugated secondary antibodies (polyclonal Goat Anti-Mouse P0447, 0.1 ng/µl and polyclonal Goat Anti-Rabbit, P0448, 0.03 ng/µl, both from Agilent Technologies LDA UK Ltd). All antibodies were diluted in 0.5% bovine serum albumin (BSA)/PBS. Washes between each step were carried out in triplicate, for 15 min each, with PBS-Tween (0.1%). Following addition of the chemiluminescent HRP substrate (Millipore, WBKL30500) membranes were imaged using Bio-Rad Chemidoc Touch Imaging System. Analysis was carried out using BioRad ImageLab software (version 5.2.1) using sequential exposures to avoid saturation artifacts. Figures for unprocessed blots are included in Supplementary information Fig. S4 and Fig. S5 with highlighted regions (in red boxes) corresponding to the data reported in the main manuscript figures.\nHuman OA cartilage was obtained from Clatterbridge Hospital, Wirral, UK, following total knee arthroplasty procedures with informed patient consent in full compliance with national and institutional ethical requirements, the United Kingdom Human Tissue Act, and the Declaration of Helsinki (REC 18/WA/0344). […]\nExplants were incubated in 0.2 ml of fresh DMEM containing compound 2 (10 or 100 µM) or 4b (10 µM) for 48 h. […] Proteins were precipitated using ice-cold acetone, dissolved in the SDS-sampling buffer and then analyzed by immunoblot using anti-AGEG aggrecan neoepitope antibody as before."}, "[4]": {"system": "porcine cartilage explants", "experiment": "Cell viability MTS assay", "type": "cell-based, pig", "conditions": "100 µM; 72 h; vs DMSO control", "procedure": "Porcine articular cartilage from the joints of 3–9 month old pigs was supplied by a local abattoir within 2 h of slaughter and dissected into small pieces approximately 3 mm long and 3–4 mm wide. Each piece weighed roughly 10 mg. After dissection, the cartilage was allowed to acclimatize for 24 h at 37 °C under 5% CO2 in Dulbecco’s Modified Eagle Medium (DMEM) containing 100 U/ml penicillin, 100 µg/ml streptomycin, 10% fetal bovine serum (FBS).\nas §1"}, "[5]": {"experiment": "Solubility determination in PBS by UV-Vis absorbance at 284 nm", "type": "physicochemical", "conditions": "PBS buffer, aqueous buffer, kinetic from dmso stock, pH 7.4, room temperature, read-out: upper solubility limit", "procedure": "The solubility of compounds 4b and 2 was assessed in PBS at pH 7.4 and room temperature. Stock solutions of the compounds (10 mM in DMSO) were diluted in PBS buffer to achieve final concentrations between 1,000 µM − 12.5 µM. Two-hundred microliters of the proper compound solutions in PBS buffer were added in a 96-well plate, and the absorbance was measured at 284 nm using a SPECTROstar Nano UV-Vis spectrophotometer (220–1,000 nm, Ortenberg, Germany). Analyses were performed in triplicate, and the mean value was calculated for each sample."}, "[6]": {"system": "A2780-Rab25", "experiment": "OC cell proliferation (DRAQ5 cell numbers)", "type": "cell-based", "conditions": "24 h", "procedure": "A2780-Rab25 (3,000 cells per well) were seeded in a 96-well plate and incubated with compound 2 (10 µM and 50 µM) or DMSO control for 24 h. Cells were fixed with 4% paraformaldehyde and stained with 5 µM DRAQ5 in PBS for 1 h at room temperature with gentle rocking. Cells were washed twice with PBS for 30 min and kept in PBS for imaging. […] was detected by the 700 nm channel (200 μm resolution) of a Licor Odyssey Sa instrument. The signal intensity (total intensity minus total background) of each well was quantified in Image Studio Lite software."}, "[7]": {"system": "human OA cartilage explants", "experiment": "Cell viability MTS assay", "type": "cell-based", "conditions": "100 µM; 72 h; vs DMSO control", "procedure": "Human OA cartilage was obtained from Clatterbridge Hospital, Wirral, UK, following total knee arthroplasty procedures with informed patient consent in full compliance with national and institutional ethical requirements, the United Kingdom Human Tissue Act, and the Declaration of Helsinki (REC 18/WA/0344). Explants (~ 36 mm^3, ~ 40 mg wet volume/weight) from each of 3 donors were placed in one well of a 48-well plate and allowed to rest for 24 h in 1 ml of DMEM containing 10% FBS before use. The medium was replaced, and the cartilage was rested for a further 24 h in 1 ml DMEM at 37 °C before assays.\nas §1, with “For experiments involving human samples, independent experiments were carried out on 3 different donors.” left out, “Cell viability was normalized to DMSO controls.” left out"}},
  "data": [
    {"compound": "CCC(C)N(Cc1cn(CCCO[C@@H]2O[C@H](CO)[C@@H](O[C@@H]3O[C@H](CO)[C@H](O)[C@H](O)[C@H]3O)[C@H](O)[C@H]2NC(C)=O)nn1)S(=O)(=O)c1ccc(-c2ccccc2)cc1", "note": "(stereo partly drawn) [compound 2, N-((2R,3R,4R,5 S,6R)-2-(3-(4-((N-(sec-butyl)-[1,1’-biphenyl]-4-sulfonamido)methyl)-1H-1,2,3-triazol-1-yl)propoxy)-4-hydroxy-6-(hydroxymethyl)-5-(((2 S,3R,4 S,5R,6R)-3,4,5-trihydroxy-6-(hydroxymethyl)tetrahydro-2 H-pyran-2-yl)oxy)tetrahydro-2 H-pyran-3-yl)acetamide]", "values": [
      {"measurement": "inhibition of cell viability", "setting": "[1]", "value": "Neither 2, nor the broad-spectrum zinc-chelating metalloproteinase inhibitor GM6001[40] had an effect on cell viability"},
      {"measurement": "inhibition of cell viability", "setting": "[2]; 50 µM", "value": "No significant effect"},
      {"measurement": "inhibition of cell viability", "setting": "[2]; 100 µM", "value": "No significant effect"},
      {"measurement": "inhibition at 10 µM", "setting": "[3]; 10 µM", "value": 63, "unit": "%"},
      {"measurement": "inhibition at 100 µM", "setting": "[3]; 100 µM", "value": 85, "unit": "%"},
      {"measurement": "decrease of cell viability", "setting": "[4]", "value": "did not exhibit cytotoxicity"},
      {"measurement": "solubility", "setting": "[5]", "value": 300, "unit": "µM"},
      {"measurement": "A2780-Rab25 cell numbers compared to DMSO control", "setting": "[6]; 10 µM", "value": "did not detect any significant difference"},
      {"measurement": "A2780-Rab25 cell numbers compared to DMSO control", "setting": "[6]; 50 µM", "value": "did not detect any significant difference"},
      {"measurement": "effect on cell viability", "setting": "[7]", "value": "no effect on cell viability was observed"}
    ]}
  ]
}
